According to ChEMBL document CHEMBL5260828, “Amphiphilic glycoconjugates as potential anti-cancer chemotherapeutics” (Eur J Med Chem, 2018):
In brackets after ≈: the same amount, converted by molar mass. One block for each molecule: values may come before it.

Legend:
HeLa [1] = test: Cytotoxicity against human HeLa cells assessed as reduction of cell viability incubated for 48 hrs by MTT assay; type: functional, cell-based
Lung NSCLC-N6 cell-line = test: Cytotoxicity against human Lung NSCLC-N6 cell-line by MTT colorimetric assay; type: functional, cell-based
P388 = test: Cytotoxicity against mouse P388 cells by MTT colorimetric assay; type: functional, cell-based
A2780 = test: Cytotoxicity against human A2780 cells incubated for 48 hrs; type: functional, cell-based; details: A2780, 48 h
Jurkat [2] = test: Cytotoxicity against human Jurkat cells incubated for 16 hrs by MTS colorimetric assay; type: functional, cell-based
A549 = test: Antiproliferative activity against human A549 cells assessed as inhibition of cell proliferation incubated for 48 hrs by SRB assay; type: functional, cell-based; details: A549, 48 h
HBL-100 = test: Antiproliferative activity against human HBL-100 cells assessed as inhibition of cell proliferation incubated for 48 hrs by SRB assay; type: functional, cell-based; details: HBL-100, 48 h
HeLa [3] = test: Antiproliferative activity against human HeLa cells assessed as inhibition of cell proliferation incubated for 48 hrs by SRB assay; type: functional, cell-based
SW1573 = test: Antiproliferative activity against human SW1573 cells assessed as inhibition of cell proliferation incubated for 48 hrs by SRB assay; type: functional, cell-based; details: SW1573, 48 h
T47D = test: Antiproliferative activity against human T47D cells assessed as inhibition of cell proliferation incubated for 48 hrs by SRB assay; type: functional, cell-based
WiDr = test: Antiproliferative activity against human WiDr cells assessed as inhibition of cell proliferation incubated for 48 hrs by SRB assay; type: functional, cell-based
MCF7 [4] = test: Antiproliferative activity against human MCF7 cells assessed as inhibition of cell proliferation incubated for 24 hrs by trypan blue assay; type: functional, cell-based; details: MCF7, 24 h
HL-60 [5] = test: Induction of apoptosis in human HL-60 cells at 5 uM incubated for 24 hrs by Annexin V-FITC/PI based flow cytometric analysis; type: functional
MDA-MB-231 = test: Cytotoxicity against human MDA-MB-231 cells assessed as cell growth inhibition by alamar blue assay; type: functional, cell-based
MCF7 [6] = test: Cytotoxicity against human MCF7 cells assessed as cell growth inhibition by MTT assay; type: functional, cell-based
HeLa [7] = test: Cytotoxicity against human HeLa cells assessed as cell growth inhibition by alamar blue assay; type: functional, cell-based
U-937 = test: Cytotoxicity against human U-937 cells assessed as cell growth inhibition by alamar blue assay; type: functional, cell-based
Jurkat [8] = test: Cytotoxicity against human Jurkat cells assessed as cell growth inhibition by alamar blue assay; type: functional, cell-based
MCF-10A = test: Cytotoxicity against human MCF-10A cells assessed as cell growth inhibition by alamar blue assay; type: functional, cell-based
[9] = Cytotoxicity against mouse NIH/3T3 cells assessed as cell growth inhibition by alamar blue assay; type: toxicity, cell-based, NIH3T3
HL-60 [10] = test: Antiproliferative activity against human HL-60 cells assessed as cell growth inhibition; type: functional, cell-based
COLO 205 = test: Antiproliferative activity against human COLO 205 cells assessed as cell growth inhibition; type: functional, cell-based

Structure (SMILES): CCCCCCCCCCCCCCCC(=O)OCc1cn([C@@H]2O[C@H](CO)[C@@H](O)[C@H](O)[C@H]2O)nn1
- IC50 (HeLa [1]): 121 µM

Structure (SMILES): CO[C@@H]1/C=C(\C)C[C@H](/C=C/C#C[C@H]2C[C@@H]2Cl)OC(=O)[C@@H](C)[C@]2(O)C[C@H](O[C@@H]3O[C@@H](C)[C@H](O)[C@@](C)(O)[C@H]3OC)[C@@H](C)[C@@H](O2)[C@@H]1C
- IC50 (Lung NSCLC-N6 cell-line): 11.3 µg/mL (≈ 17.6 µM)
- IC50 (P388): 15.3 µg/mL (≈ 23.8 µM)
- IC50 (A2780): 20.2 µM

Structure (SMILES): CCCCCCCCCCCCCCCCn1cc(CO[C@@H]2O[C@H](CO)[C@@H](O)[C@H](O)[C@H]2O)nn1
- IC50 (Jurkat [2]): 24 µM

- IC50 (A549): 30 µM
- IC50 (HeLa [3]): 30 µM
- IC50 (SW1573): 30 µM
- IC50 (T47D): 30 µM
Structure (SMILES): CCCCCCCCN[C@@H]1[C@H](O)[C@@H](O)[C@@H](O)[C@H]2COC(=O)N21
- IC50 (HBL-100): 30 µM
- IC50 (WiDr): 30 µM

- IC50 (MCF7 [4]): 22 µM
Structure (SMILES): CCCCCCCC[C@@H]1[C@H](O)[C@@H](O)[C@H](O)[C@H]2COC(=O)N12

Structure (SMILES): C[C@@H](N)[C@H](O)CCCCCCCCCCCCCCC(=O)CCCCCCC[C@@H](O)[C@@H](C)N
- Activity (HL-60 [5]): 93%

Structure (SMILES): C/C=C(\C)C(=O)O[C@@H]1[C@@H](O)[C@H](O[C@H]2[C@H](O[C@H](CCC)CCCCC)O[C@H](C)[C@H](OC(C)=O)[C@@H]2O)O[C@H](COC(=O)CCC(=O)CCC)[C@H]1OC(=O)/C=C/c1ccccc1
- IC50 (MDA-MB-231): 0.0188 µM
- IC50 (MCF7 [6]): 0.0782 µM
- IC50 (HeLa [7]): 0.03 µM
- IC50 (U-937): 0.0171 µM
- IC50 (Jurkat [8]): 0.0225 µM
- IC50 (MCF-10A): 0.0118 µM
- IC50 [9]: 0.0207 µM

Structure (SMILES): CN[C@H]1[C@@H](O)C[C@H](O[C@H]2C/C=C(\C)C/C(C)=C/C=C/CC[C@H](C)CNC(=O)/C=C/C=C/[C@@H]2C)O[C@@H]1C [VICENISTATIN]
- IC50 (HL-60 [10]): 0.12 µg/mL (≈ 0.24 µM)
- IC50 (COLO 205): 0.19 µg/mL (≈ 0.379 µM)
